Source: EP2002836B1, “Cyclocondensed azaindoles active as kinase inhibitors” (Nerviano Medical Sciences S.r.l., priority 2007, dated 2008)

These compounds were tested against T1, PKAα (Homo sapiens, UniProt P17612) (assay: FABS-NMR screening (3-FABS, 19F-labelled AKTide-like substrate) on PKA). Settings: 25 nM protein, 30 µM substrate, 150 µM ATP.
T1 construct: polyHis; made in house; host or cells: E. coli
Format: biochemical
Protocol: The biochemical functional NMR screening on the proteins kinase AKT-1 and PKA was performed using the 3-FABS (3-Fluorine Atoms for Biochemical Screening) technique developed by C. Dalvit and the NMR group in house (C. Dalvit et al 2003 J. Am. Chem. Soc. 125 (47): 14620).
The method require the use of a ^19F-labelled substrate. The same commercial peptide was used as substrate in both enzymatic reaction: the Tyr just before the phosphorilation site in the AKTide peptide was mutated in a 3-tryfluormethyl-Phe by Bachem.
The AKTide like peptide sequence is reported below: • H-Ala-Arg-Lys-Arg-Glu-Arg-Ala-F(3-CF3)-Ser-Phe-Gly-His-His-Ala-OH
The active human Ser-Thr protein kinase AKT-1 Full Length was expressed as GST fusion protein in insect cells and then the GST was cleaved with PreScission protease. The active cycled AMP-dependent human protein kinase A PKA was expressed as polyHis-tag protein in E.Coli and purified by affinity column.
Reactions were performed in an end point format in eppendorf of 0.5 ml using the buffer solution 50mM Tris, pH 7.5, 5mM MgCl2, 1mM DTT, 8% D2O and 0.001% Triton-X-100; the final volume was of 560 µl. The substrate and protein concentration were of 30 µM and 25 nM respectively. The reactions were performed using an ATP concentration of about 9 times its KM: 150 µM in the test with PKA and 1.5 mM in the AKT-1 experiments. A sample in absence of inhibitor was run as control in order to follow the ongoing of the reaction and it represents the 0% inhibition. Different concentration compound stock solutions in DMSOd6 were made in order to add the same amount of DMSOd6 in each sample: usually the compounds stock were of 0.03, 0.2, 2, and 10 mM. 0.56 µl of these solution was added in each sample in order to reach the final compounds concentration of 30 nM, 200 nM 2 µM and 10 µM respectively; 0.56 µl of DMSOd6 was added in the control too. The reactions were quenched after about 100/120 minutes with 10 mM of Staurosporine (Sigma code:S4400), transferred into the 5 mm NMR tube (Cortec code: NE-MP5-8) and put onto the Sample Management System (SMS) autosampler for automatic data collection. The spectra were recorded using the Varian Inova 600 MHz NMR spectrometer operating at a ^19F Larmor frequency of 564 MHz and using a 5mm probe with the inner coil tuned to ^19F and the outer coil tuned to H. The data were recorded without proton decoupling with a spectral width of 12000 Hz, an acquisition time of 0.8s and a relaxation delay of 2.8s. Chemical shifts are referenced to trifluoroacetic acid.
IC50 determination was achieved by measuring the substrate signal as a function of the inhibitor concentration using one of the formulas below. […] IC50 data were analyzed with non-linear least squares methods in the Origin 5.0 software package.

Q: How did the IC50 turn out when `NC[C@H](Cc1ccccc1)NC(=O)C1=Cc2c[nH]c3nccc(c23)CC1` [Cpd. 1, N-[(1S)-2-amino-1-benzylethyl]-6,7-dihydro-2H-2,3-diazabenzo[cd]azulene-8-carboxamide] was run?
A: 0.02 µM

Q: How did the IC50 turn out when `CC(=O)N1CC(C(=O)N[C@H](CN)Cc2ccccc2)=Cc2c[nH]c3nccc1c23` [Cpd. 3, 6-acetyl-N-[(1S)-2-amino-1-benzylethyl]-6,7-dihydro-2H-2,3,6-triazabenzo[cd]azulene-8-carboxamide] was run?
A: 0.075 µM

Q: With `O=C(N[C@H](CN1CCCC1)c1ccccc1)C1=Cc2c[nH]c3nccc(c23)CC1` [Cpd. 6, N-[(1S)-1-phenyl-2-pyrrolidin-1-ylethyl]-6,7-dihydro-2H-2,3-diazabenzo[cd]azulene-8-carboxamide] as the compound, how does the IC50 read?
A: 0.062 µM

Q: `NC[C@H](Cc1ccccc1)NC(=O)C1=Cc2c[nH]c3nccc(c23)NC1` [compound 2, N-[(1S)-2-amino-1-benzylethyl]-6,7-dihydro-2H-2,3,6-triazabenzo[cd]azulene-8-carboxamide] was tested. Which IC50 did it give?
A: 0.01 µM
